Measurements as given in the METLIN SMRT retention time set (Domingo-Almenara et al. 2019).

Assay: gradient 5% acetonitrile 3 min, to 50% in 2 min, to 85% in 15 min, held 3 min, 100 µL/min
Details: column: Zorbax Extend-C18 2.1 x 50 mm; eluents: water / acetonitrile, 0.1% formic acid
Procedure, shortened: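 Mixtures of ~100 pure standards were chromatographed on a Zorbax Extend-C18 column (2.1 × 50 mm, 1.8 μm) at 100 μL/min using water and acetonitrile, each with 0.1% formic acid. Detection used a quadrupole time-of-flight mass spectrometer in positive and negative ionization mode, and data collection spanned 3 months. Retention time was obtained from adduct peaks picked computationally and each checked manually.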

SMILES | RP-LC retention time
CCCN1CCN(C(=O)c2noc3c2CCCCC3)CC1 | 613 s
CCN1CCCn2cc(S(=O)(=O)N3CCN(c4ccccn4)CC3)cc2C1=O | 577 s
N#Cc1cccc(S(=O)(=O)N2CCc3nc[nH]c3C2)c1 | 592 s
O=C1CN(C(=O)c2ccccc2F)c2ccccc2N1 | 645 s
CC1(C(=O)NC2CCCC2)CN(S(C)(=O)=O)CC(=O)N1Cc1ccc(Cl)cc1 (stereo not drawn) | 834 s
COC(=O)c1c(C)[nH]c(C(=O)N2CCC(CC(=O)NCCN3CCCCC3)CC2)c1C | 584 s
CC1(C(=O)NCc2ccc3c(c2)OCO3)Oc2cccnc2NC1=O (stereo not drawn) | 672 s
O=C(NCc1noc(C2CCCC2)n1)c1ccc(F)cc1 | 798 s
Cc1csc(-c2nnc(Nc3ccc(Oc4ncccc4-c4ccnc(N)n4)cc3)c3ccccc23)c1 | 731 s
CC(=O)Nc1nc(-c2ccc(S(=O)(=O)Nc3ccc(C)cc3)cc2)cs1 | 854 s
O=C(NC1CC1)c1ccccc1OC1CN(Cc2ccsc2)C1 | 600 s
CN1c2ccccc2Oc2nnc(N3CCN(c4ccccn4)CC3)cc21 | 550 s
CC(C)n1cnc2cc(CNC(=O)c3ccnn3C)ccc21 | 582 s
COc1ccc(-c2cn3ccn(-c4ccc(Br)cc4)c(=O)c3n2)cc1OC | 795 s
CCCc1nc2ccc(CCC(=O)Nc3cc(OC)cc(OC)c3)cc2[nH]1 | 657 s
O=C(Nc1cc(Cl)ccc1F)c1cnc(-c2ccc(F)cc2)nc1-c1ccncc1 | 1050 s
Cc1ccccc1NC(=O)c1c(NC(=O)CCC(=O)O)sc2c1CCCC2 | 939 s
Cc1ccc(CN2C(=O)CN(S(C)(=O)=O)CC2(C)C(=O)NCc2ccccc2)cc1 (stereo not drawn) | 851 s
Cc1nn(Cc2nc(-c3ccc(NC(=O)c4cccs4)cc3)oc2C)c(C)c1C | 922 s
CC(CCc1ccccc1)NC(C)C(O)c1ccc(O)cc1 (stereo not drawn) | 712 s
C/C=C1/C(=O)C[C@H]2[C@@H]3CCC4=CC(=O)CC[C@]4(C)[C@H]3CC[C@]12C | 1100 s

SMILES | RP-LC retention time
COc1ccccc1-n1nnc(C(=O)N2CCc3ccccc32)c1-c1ccccn1 | 836 s
CCOc1ccc(-c2csc(Nc3ccccn3)n2)cc1 | 910 s
O=C(c1ccsc1)N1CC(Oc2ccc(-c3nc(-c4ccccc4)no3)cc2)C1 | 1120 s
Cc1nc(-c2ccccc2)nc2c1CCC(=O)N2C(C)C | 1060 s
Cc1nn2c(CNS(=O)(=O)c3ccccc3)c(-c3ccccc3)nc2s1 | 818 s
CCCNc1cc(N2CCC(CCC(=O)N3CCC(C(=O)OCC)CC3)CC2)ncn1 | 664 s
CCC(C)(C)NS(=O)(=O)c1cc(-c2nc(C)cs2)n(CC(=O)N2CCCC2)c1 | 967 s
CN(C)c1nc2cc(C(=O)N3CCC4(CC3)OCCO4)sc2n1-c1ccc(F)cc1 | 654 s
C=CCNS(=O)(=O)CCNC(=O)c1ccccc1 | 629 s
CCOC(=O)C(C(=O)NCCCN1CCOCC1)C1CCCCC1 (stereo not drawn) | 624 s
CC(NC(=O)Cn1c(=O)n(-c2ccc(F)cc2)c2ncccc21)c1ccccn1 (stereo not drawn) | 627 s
CC1(O)CCOC2(CCN(C(=O)c3ccc(Br)o3)CC2)C1 (stereo not drawn) | 690 s
COc1ccc(-c2cc3c4nnc(CCC(=O)NCc5ccccc5C(F)(F)F)n4ccn3n2)cc1 | 822 s
O=C(NCCc1ccccc1)C1CCCN(C(=O)c2cccc(C(F)(F)F)c2)C1 (stereo not drawn) | 903 s
CCOc1ccc(OCC)c(N2C=C(C#N)S(=O)(=O)c3cc(F)ccc32)c1 | 1030 s
CCc1ccc(S(=O)(=O)NCCOc2ccc(-c3ccco3)nn2)s1 | 804 s
O=C(NCc1ccco1)C1CCN(c2cc(N3CCCCC3)ncn2)CC1 | 632 s
CCOC(=O)N1CCN(c2ncc3c(n2)CC(C)CC3=O)CC1 (stereo not drawn) | 842 s
Cc1ccc2c(c1)Oc1ccccc1N=C2 | 993 s
O=C(c1csc(S(=O)(=O)N2CCC(C(=O)N3CCCCCC3)CC2)c1)N1CCCCCC1 | 876 s

Next, values leading:

RP-LC retention time | SMILES
744 s | CCCNC(=O)C1CCCN(c2ccc(SCC(=O)Nc3cccc(C(F)(F)F)c3)nn2)C1 (stereo not drawn)
1250 s | O=C(Nc1cccc(F)c1)c1c(O)c2cccnc2n(-c2ccc(F)cc2)c1=O
729 s | CC1(C)CC(=O)c2cn(-c3ccc(F)cc3)c(=O)c(C(=O)N3CCCC3)c2C1
666 s | Cc1c(Cl)ccc2c(=O)c3c([nH]c12)CCN(CC(=O)NCc1ccc2c(c1)OCO2)C3
787 s | O=S(=O)(c1ccc(F)cc1)N1CCC(Cc2nncn2-c2ccccc2)CC1
507 s | COc1cccc(CNC(=O)c2cc3cn(C4CC4)cc3s2)c1OC
1070 s | COc1ccc(-c2nnc(-c3ccc(Cl)c(S(=O)(=O)N4CCCCC4)c3)o2)cc1OC
649 s | Cc1ccc2c(Nc3ccc4c(c3)OCCO4)c(C(=O)N3CCC(C)CC3)cnc2n1
920 s | COc1ccc(-c2noc(C3CCCN3C(=O)Nc3ccccc3Cl)n2)cc1 (stereo not drawn)
1060 s | CCOC(=O)c1oc2ccc(S(=O)(=O)N3CCCCCCNC(=O)[C@@H]4CCC[C@@H]43)cc2c1C
583 s | O=C(Nc1ccccc1)N1CCC2(CC1)CC(N1CCOCC1)CCO2 (stereo not drawn)
1120 s | CCCCn1cc(S(=O)(=O)N2CCN(c3ccccc3)CC2)c2cccnc21
760 s | COc1ccc(Cl)cc1NC(=O)N1CCC(c2cc(N)on2)CC1
943 s | O=C(Nc1ccc(Br)cc1F)C1CCCN(C(=O)c2ccccc2F)C1 (stereo not drawn)
1210 s | Cc1ccc(S(=O)(=O)N2CCCC2c2nc(-c3cccc(C(F)(F)F)c3)no2)cc1 (stereo not drawn)
849 s | COc1ccc(-n2c(=O)n(C)c(=O)c3cc(C(=O)Nc4ccc(C)cc4F)cnc32)cc1
786 s | O=C(Cn1ccn2nc(-c3ccc(F)cc3)c(CO)c2c1=O)Nc1ccc2c(c1)OCCO2
924 s | Cc1ccc(-c2cn3ccn(-c4ccc(F)c(F)c4)c(=O)c3n2)c(C)c1
1110 s | Cc1ccc(C)c(N2CCN(c3cc(C(=O)O)c4cc(NS(C)(=O)=O)ccc4n3)CC2)c1
1030 s | Cc1ccc(-n2nc(CO)c(C(=O)NC3CCCC3)n2)cc1
1130 s | CC1CCN(c2nc3c(c(=O)n(Cc4ccccc4F)c(=O)n3C)n2C)CC1
1010 s | Cc1ccc(F)c(NC(=O)c2nc(C)oc2C)c1
694 s | COc1ccc(CCNC(=O)C2CCN(C(=O)C3Sc4ccccc4NC3=O)CC2)cc1OC (stereo not drawn)
801 s | CCCN1C(=O)C2CCC(=O)N2c2ccc(C(=O)NC(C)c3ccccc3)cc21 (stereo not drawn)

RP-LC retention time | SMILES
819 s | CCN(c1cccc(C)c1)S(=O)(=O)c1cc(-c2[nH]ncc2C(=O)N2CCCC2)oc1C
1200 s | O=C(Nc1cccc(F)c1)N1CC(Oc2ccc(-c3nc(-c4ccccc4)no3)cc2)C1
1090 s | COC(=O)c1cc(C2CC2)nc2c1c(=O)n(Cc1cccc(C)c1)c(=O)n2C
892 s | Cc1cc(C)cc(NC(=O)N2CCC(n3cnc4c(Cl)cccc4c3=O)CC2)c1
958 s | COc1ccc(Cl)cc1S(=O)(=O)N1CCc2c(c(-c3nnc(-c4ccccc4)o3)nn2C)C1
678 s | O=C(c1sc2ccccc2c1Cl)N1CCN(c2ccccn2)CC1
966 s | Cc1ccc(-n2c(N3CCCC(C(=O)Nc4ccccc4)C3)nc3ccsc3c2=O)cc1 (stereo not drawn)
865 s | COc1ccc(-c2cc(C(=O)N3CCCC3c3cc(C)on3)on2)cc1 (stereo not drawn)
640 s | CCC(=O)N1CCc2c(c(C(=O)N3CCC(C(=O)NCc4ccc(OC)cc4)CC3)nn2C)C1
605 s | O=C(Cn1ccc2ccn(Cc3cccnc3)c2c1=O)NC1CCCC1
679 s | Cc1nc(-c2ccncc2)cc2nn(CC(=O)Nc3ccc(F)c(Cl)c3)c(=O)n12
665 s | Cc1cc(C)nc(Nc2nc(C(=O)N3CCN(C(=O)c4ccco4)CC3)cs2)n1
680 s | COc1ccc(OC)c(CNC(=O)c2ccc3[nH]c4c(c3c2)CN(C(C)=O)CC4)c1
626 s | CCc1ccc2[nH]c3c(c(=O)c2c1)CN(CC(=O)Nc1cccc(C#N)c1)CC3
842 s | CCn1ncc(NC(=O)c2ccccc2F)c(N2CCOCC2)c1=O
624 s | COC(=O)CNC(=O)Nc1ccc2nc(-c3ccc(F)cc3)cc(OC)c2c1
779 s | COc1cccc(F)c1-c1nc(C)c(C(=O)Nc2nc3ccccc3[nH]2)s1
680 s | CCOC(=O)C1CCCN(c2ccc(-n3nc(C)cc3C)nn2)C1 (stereo not drawn)
610 s | Cn1cccc(C(=O)N2CCC(CNC(=O)c3ccc(Cl)s3)CC2)c1=O
901 s | O=C(Cn1c(=O)c2cccn2c2ccccc21)Nc1ccc(Cl)cc1
909 s | CCc1noc(NC(C)=O)c1-c1ccc(C)c(S(=O)(=O)NC2CCCCCC2)c1
682 s | Cc1nc(Nc2ncc(C(=O)Nc3c(C)cccc3Cl)s2)cc(N2CCN(CCO)CC2)n1
671 s | Cc1ccc(Nc2cc(-n3ccnc3)ncn2)cc1C
